# From patent US20030176511A1, “Compositions and methods for treating cardiovascular disorders” (priority 2000, published 2003)
# What was measured:
# [1] = system: plasma lipid peroxidation; test: Ex vivo peroxyl radical (AAPH)-induced lipid peroxidation of plasma from apoE−/−;LDLr−/− mice; assay type: in vivo; conditions: pooled plasma of bisphenol-treated mice, 5 mM AAPH, 37° C.
# Protocol: Pooled plasma obtained from at least 3 mice receiving control diet (circles) or diet supplemented with bisphenol (squares) were treated with 5 mM AAPH and incubated at 37° C. At the times indicted aliquots were removed and analysed for α-TOH (A) and CE-O(O)H (B). 100% α-TOH levels correspond to 28±3 and 20±2 μM for control and H 212/43 plasma, respectively. Data represents the mean±SD (n=4 independent experiments).
# Oxidation of plasma, pooled from=3 mice was carried out by addition of the peroxyl radical generator (final concentrations 5 mM) and incubating the reaction mixture at 37° C. under air. Aliquots (50 μL) of the reaction mixture were removed, extracted in methanol/hexane (1:5, v/v), and the consumption of antioxidants and accumulation of lipid oxidation products determined.
# Analyses of oxidised and non-oxidised lipids were carried out by RP-HPLC as described in Example 1 except that in some instances UV234 nm rather than post-column chemiluminescence detection was used to measure C18:2-OOH and the corresponding hydroxides (together referred to as CE-O(O)H) which show similar retention times under these chromatographic conditions. α-TQ, α-TOH, α-tocotrienol, D-isosascorbate and ascorbate were determined by HPLC with electrochemical detection. […] All compounds were quantified by peak area comparison with authentic standards. […]
# [2] = system: tocopherol-mediated peroxidation (TMP); test: Anti-TMP index; assay type: biochemical
# [3] = system: α-tocopheroxyl radical; test: Tocopheroxyl radical attenuating ability (TRAA); assay type: biochemical; conditions: kobs in presence (+) or absence (−) of test compound
# [4] = system: aortic lipoprotein lipid peroxidation; test: Aqueous and lipophilic parameters of apoE−/−;LDLr−/− mouse aortae; assay type: in vivo, mice
# Protocol: Pooled aortas from 7-8 mice obtained from control or bisphenol-treated mice were homogenized, the lipid extracted and subjected to HPLC with post-column chemiluminescence detection for analysis of cholesteryl ester hydroperoxides (CE-OOH). Chromatograms correspond to aortas of age-matched control (a or b) or drug-treated mice with low or high plasma levels of bisphenol (c and d, respectively). Under the conditions used, CE-OOH eluted between 8 and 9.5 min. The chemiluminescence negative peaks between 4 and 5.5 min correspond to the elution of tocopherols.
# Male apoE−/−;LDLr−/− mice (59 total), were maintained on standard R3 chow from weaning to 8 weeks of age (young controls, n=9). […]
# Analyses of oxidised and non-oxidised lipids were carried out by RP-HPLC as described in Example 1 except that in some instances UV234 nm rather than post-column chemiluminescence detection was used to measure C18:2-OOH and the corresponding hydroxides (together referred to as CE-O(O)H) which show similar retention times under these chromatographic conditions. α-TQ, α-TOH, α-tocotrienol, D-isosascorbate and ascorbate were determined by HPLC with electrochemical detection. For oxidation of plasma, unesterified cholesterol (which remained non-oxidised in these experiments) was employed as internal standard for all polyunsaturated, lipid-soluble components analysed. […]
# [5] = system: atherosclerosis in apoE−/−;LDLr−/− mice; test: Atherosclerosis (intima volume, descending thoracic aorta) in apoE−/−;LDLr−/− mice; assay type: in vivo; conditions: bisphenol for 14 weeks, compared with age-matched controls
# Protocol: Lesion formation was assessed by changes to intima volume when compared with young and age-matched controls receiving standard chow for 8 and 22 weeks, respectively. *Denotes a statistically significant difference with α<0.025 (Wilcoxon test).
# Aortic lesions were assessed in segments centered around the third pair of intercostal artery branches in the descending thoracic aorta. Briefly, the fixed aortas were dehydrated in ethanol, cleared with xylene and embedded in paraffin. Serial sections (10 in total; each 2-3 μm thick and 100 μm apart) were cut and stained using Weigerts hematoxylin-van Gieson. Aortic thickening was assessed as the total volume of intima in the segment investigated in bisphenol-treated versus control samples.
# Aortic volumes were determined by planimetry, using a Lucivid device (MicroBrightField, Colchester, Vermont, […]) attached to a Leitz DRM microscope that allowed the superposition of a computer monitor onto the cross sectional image.
smiles,measurement,setting,value
CC(C)(C)c1cc(-c2cc(C(C)(C)C)c(O)c(C(C)(C)C)c2)cc(C(C)(C)C)c1O [Bisphenol],CE-OOH detected after 12 h of oxidation,[1],< 1 µM
same,α-TOH after 12 h of oxidation,[1],remained unaltered
same,Anti-TMP index,[2],3.2
same,TRAA (decay of α-tocopheroxyl radical; kobs(+)/kobs(−)),[3],Immediate decay
same,"level of oxidised lipids in aortas, fold lower than control",[4]; drug-treated animals with high plasma levels of bisphenol,1000 fold
same,"level of oxidised lipids in aortas, fold lower than control",[4]; drug-treated animals with low plasma levels of bisphenol,10 fold
same,"lesion size (intimal volume, descending thoracic aorta)",[5],substantially decreased the lesion size
